From patent EP4650002A1 (Ludwig-Maximilians-Universität, priority 2024, dated 2025)

Molecular target: T1, human TLX (Homo sapiens, UniProt Q9Y466)
T1 construct: expressed in transfected cells; host or cells: HEK293T
Assay: Gal4 hybrid reporter gene assay (TLX modulation)
Type: cell-based
Set-up: key to relative reporter activity: fraction of DMSO control (DMSO = 1)
Conditions: for relative reporter activity: DMSO control = 1; for EC50: Gal4-TLX hybrid reporter in HEK293T cells, 16 h incubation
Experimental: In the Tables, the TLX relative reporter activity is expressed as EC50 (in µM) for each listed compound. "EC50" refers to a measure of the concentration of a compound which induces a biological response halfway between the baseline and maximum after a specified exposure time. […] The EC50 is measured via a hybrid reporter gene assay, employing the transfection of a reporter (firefly luciferase with Gal4 response element), a control gene (Renilla luciferase), a transcriptional activator (Gal4-VP16) and a hybrid receptor consisting of the TLX ligand binding domain (LBD) and the Gal4 DNA binding domain (DBD).
Hybrid reporter gene assays. […] After 24 h, medium was changed to Opti-MEM without supplements and cells were transiently transfected using Lipofectamine LTX reagent (Invitrogen, Carlsbad, CA, USA) according to the manufacturer's protocol. Five hours after transfection, cells were incubated with the test compounds in Opti-MEM supplemented with penicillin (100 U/mL), streptomycin (100 µg/mL) and 0.1% DMSO for 16 h before luciferase activity was measured using the Dual-Glo Luciferase Assay System (Promega) according to the manufacturer's protocol on a Tecan Spark luminometer (Tecan Deutschland GmbH, Crailsheim, Germany). Firefly luminescence was divided by Renilla luminescence and multiplied by 1000 resulting in relative light units (RLU) to normalize for transfection efficiency and cell growth. Fold activation was obtained by dividing the mean RLU of test compound by the mean RLU of the untreated control. All samples were tested in at least three biologically independent experiments in duplicates. For dose-response curve fitting and calculation of EC50 values, the equation "[Agonist] vs. response -- Variable slope (four parameters)" was used in GraphPad Prism (version 7.00, GraphPad Software, La Jolla, CA, USA).

[1] = minimal remaining or maximum reporter activity after treatment, in brackets below the EC50, <1 agonism, >1 inverse agonism

T1 sequence (Q9Y466 155-383 limits assumed): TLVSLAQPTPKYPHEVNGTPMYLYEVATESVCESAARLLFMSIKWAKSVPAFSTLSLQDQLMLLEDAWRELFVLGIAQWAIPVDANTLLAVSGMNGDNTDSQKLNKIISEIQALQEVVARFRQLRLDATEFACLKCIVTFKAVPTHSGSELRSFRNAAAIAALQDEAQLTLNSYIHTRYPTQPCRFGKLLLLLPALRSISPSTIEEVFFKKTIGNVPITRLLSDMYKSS

Compound | EC50 [µM] | relative reporter activity [1] | also measured
Cc1cnc(-c2cc(N)cc(C(F)(F)F)c2)s1 [compound 54, 3-(5-methylthiazol-2-yl)-5-(trifluoromethyl)aniline] | – | – | relative reporter activity (at 30 µM): (0.46±0.21 at 30 µM)
Cc1ccc(-c2cc(N)cc(C(F)(F)F)c2)s1 [compound 55, 3-(5-methylthiophen-2-yl)-5-(trifluoromethyl)aniline] | – | – | relative reporter activity (at 30 µM): 2.2±0.6
Cc1cc(C)c(-c2cc(N)cc(C(F)(F)F)c2)s1 [compound 56, 3-(3,5-dimethylthiophen-2-yl)-5-(trifluoromethyl)aniline] | – | – | relative reporter activity (at 50 µM): 3.4±0.3
Cc1cc(-c2cc(N)cc(C(F)(F)F)c2)cs1 [compound 59, 3-(5-methylthiophen-3-yl)-5-(trifluoromethyl)aniline] | – | – | relative reporter activity (at 30 µM): 2.8±0.5
CC(=O)c1cc(-c2cc(NC(=O)c3ccnc4ccccc34)cc(C(F)(F)F)c2)cs1 [compound 61, N-(3-(5-acetylthiophen-3-yl)-5-(trifluoromethyl)phenyl)quinoline-4-carboxamide] | 1.1 ± 0.3 | 0.17±0.08 | –
CC(=O)c1cc(-c2cc(NC(=O)Cc3ccccc3Cl)cc(C(F)(F)F)c2)cs1 [compound 62, N-(3-(5-acetylthiophen-3-yl)-5-(trifluoromethyl)phenyl)-2-(2-chlorophenyl)-acetamide] | 0.36 ± 0.09 | 0.27±0.03 | –
Cc1nc(-c2cc(N)cc(C(F)(F)F)c2)cs1 [compound 64, 3-(2-methylthiazol-4-yl)-5-(trifluoromethyl)aniline] | – | – | relative reporter activity (at 120 µM): (0.67±0.06 at 120 µM)
Cc1ccc(-c2cc(N)cc(C(F)(F)F)c2)cc1 [compound 67, 4'-methyl-5-(trifluoromethyl)-[1, 1 '-biphenyl]-3-amine] | – | – | relative reporter activity (at 30 µM): inactive at 30 µM
Cc1cccc(-c2cc(N)cc(C(F)(F)F)c2)c1 [compound 72, 3'-methyl-5-(trifluoromethyl)-[1,1'-biphenyl]-3-amine] | – | – | relative reporter activity (at 30 µM): inactive at 30 µM
Cc1cc(-c2cc(NC(=O)c3ccnc4ccccc34)cc(C(F)(F)F)c2)ccn1 [compound 75, N-(3-(2-methylpyridin-4-yl)-5-(trifluoromethyl)phenyl)quinoline-4-carboxamide] | 0.41 ± 0.11 | 0.26±0.05 | –
Cc1cc(-c2cc(NC(=O)Cc3ccccc3)cc(C(F)(F)F)c2)ccn1 [compound 76, N-(3-(2-methylpyridin-4-yl)-5-(trifluoromethyl)phenyl)-2-phenylacetamide] | 0.3 ± 0.07 | 0.12±0.06 | –
Cc1cc(-c2cc(NC(=O)c3ccc(Cl)c(Cl)c3)cc(C(F)(F)F)c2)ccn1 [compound 78, 3,4-dichloro-N-(3-(2-methylpyridin-4-yl)-5-(trifluoromethyl)phenyl)benzamide] | 0.6 ± 0.2 | 0.51±0.5 | –
CC(=O)Nc1cc(-c2ccnc(C)c2)cc(C(F)(F)F)c1 [compound 79, N-(3-(2-methylpyridin-4-yl)-5-(trifluoromethyl)phenyl)acetamide] | 2.6 ± 0.4 | 0.18±0.06 | –
Cc1cc(-c2cc(NC(=O)c3ccc4ccccc4c3)cc(C(F)(F)F)c2)ccn1 [compound 80, N-(3-(2-methylpyridin-4-yl)-5-(trifluoromethyl)phenyl)-2-naphthamide] | 0.97 ± 0.22 | 0.29±0.06 | –
Cc1cc(-c2cc(NC(=O)c3cc4ccccc4s3)cc(C(F)(F)F)c2)ccn1 [compound 81, N-(3-(2-methylpyridin-4-yl)-5-(trifluoromethyl)phenyl)benzo[b]thiophene-2-carboxamide] | 1.2 ± 0.2 | 0.39±0.05 | –
Cc1cc(-c2cc(NC(=O)C3CCC3)cc(C(F)(F)F)c2)ccn1 [compound 82, N-(3-(2-methylpyridin-4-yl)-5-(trifluoromethyl)phenyl)cyclobutanecarboxamide] | 0.6 ± 0.2 | 0.17±0.09 | –
C=C(C(=O)Nc1cc(-c2ccnc(C)c2)cc(C(F)(F)F)c1)c1ccc2cc(OC)ccc2c1 [compound 83, 2-(6-methoxynaphthalen-2-yl)-N-(3-(2-methylpyridin-4-yl)-5-(trifluoromethyl)-phenyl)propenamide] | – | – | relative reporter activity (at 10 µM): (0.66±0.07 at 10 µM)
Cc1cc(-c2cc(NC(=O)C(O)(c3ccccc3)C3CCCC3)cc(C(F)(F)F)c2)ccn1 (stereo not drawn) [compound 84, 2-cyclopentyl-2-hydroxy-N-(3-(2-methylpyridin-4-yl)-5-(trifluoromethyl)phenyl)-2-phenylacetamide] | – | – | relative reporter activity (at 3 µM): (0.26±0.05 at 3 µM)
Cc1cc(-c2cc(NC(=O)C3CCCNC3)cc(C(F)(F)F)c2)ccn1 (stereo not drawn) [compound 85, N-(3-(2-methylpyridin-4-yl)-5-(trifluoromethyl)phenyl)piperidine-3-carboxamide] | – | – | relative reporter activity (at 20 µM): (0.15±0.01 at 20 µM)
Cc1cc(-c2cc(NC(=O)c3cc(C)[nH]n3)cc(C(F)(F)F)c2)ccn1 [compound 86, 5-methyl-N-(3-(2-methylpyridin-4-yl)-5-(trifluoromethyl)phenyl)-1H-pyrazole-3-carboxamide] | 3.3 ± 0.7 | 0.32±0.03 | –
Nc1cc(-c2ccc3occc3c2)cc(C(F)(F)F)c1 [compound 91, 3-(benzofuran-5-yl)-5-(trifluoromethyl)aniline] | – | – | relative reporter activity (at 10 µM): (0.84±0.06 at 10 µM)
Nc1cc(-c2ccc3sccc3c2)cc(C(F)(F)F)c1 [compound 92, 3-(benzo[b]thiophen-5-yl)-5-(trifluoromethyl)aniline] | – | – | relative reporter activity (at 10 µM): inactive at 10 µM
Nc1cc(-c2ccc3[nH]ccc3c2)cc(C(F)(F)F)c1 [compound 93, 3-(1H-indol-5-yl)-5-(trifluoromethyl)aniline] | 1.4 ± 0.4 | – | –

Second part, led by results:

EC50 [µM] | relative reporter activity [1] | Compound | also measured
4.4 ± 1.6 | – | CC(=O)c1ccc(-c2cc(N)cc(C(F)(F)F)c2)s1 [compound 57, 1-(5-(3-amino-5-(trifluoromethyl)phenyl)thiophen-2-yl)ethan-1-one] | –
3.5 ± 1.8 | – | COC(=O)c1ccc(-c2cc(N)cc(C(F)(F)F)c2)s1 [compound 58, methyl 5-(3-amino-5-(trifluoromethyl)phenyl)thiophene-2-carboxylate] | –
0.7 ± 0.3 | 0.24±0.07 | CC(=O)c1cc(-c2cc(N)cc(C(F)(F)F)c2)cs1 [compound 60, 1-(4-(3-amino-5-(trifluoromethyl)phenyl)thiophen-2-yl)ethan-1-one] | –
11 ± 3 | 0.58±0.10 | Nc1cc(-c2cscn2)cc(C(F)(F)F)c1 [compound 63, 3-(thiazol-4-yl)-5-(trifluoromethyl)aniline] | –
– | 0.26±0.05 | CC(=O)c1nc(-c2cc(N)cc(C(F)(F)F)c2)cs1 [compound 65, 1-(4-(3-Amino-5-(trifluoromethyl)phenyl)thiazol-2-yl)ethan-1-one] | –
2.1 ± 0.5 | 0.40±0.06 | Nc1cc(-c2cncnc2)cc(C(F)(F)F)c1 [compound 66, 3-(pyrimidin-5-yl)-5-(trifluoromethyl)aniline] | –
15 ± 6 | 0.34±0.09 | Cc1ncc(-c2cc(N)cc(C(F)(F)F)c2)cn1 [compound 68, 3-(2-methylpyrimidin-5-yl)-5-(trifluoromethyl)aniline] | –
6.3 ± 2.1 | – | Cc1cc(-c2cc(N)cc(C(F)(F)F)c2)cnc1C [compound 69, 3-(5,6-dimethylpyridin-3-yl)-5-(trifluoromethyl)aniline] | –
4.6 ± 2.4 | – | CC(=O)c1cncc(-c2cc(N)cc(C(F)(F)F)c2)c1 [compound 70, 1-(5-(3-amino-5-(trifluoromethyl)phenyl)pyridin-3-yl)ethan-1-one] | –
13 ± 4 | 0.18±0.13 | Nc1cc(-c2ccncc2)cc(C(F)(F)F)c1 [compound 73, 3-(pyridin-4-yl)-5-(trifluoromethyl)aniline] | –
6.6 ± 2.1 | – | Cc1cc(-c2cc(N)cc(C(F)(F)F)c2)ccn1 [compound 74, 3-(2-methylpyridin-4-yl)-5-(trifluoromethyl)aniline] | –
4.6 ± 2.1 | 0.30±0.05 | CC(=O)c1cc(-c2cc(N)cc(C(F)(F)F)c2)ccn1 [compound 87, 1-(4-(3-amino-5-(trifluoromethyl)phenyl)pyridin-2-yl)ethan-1-one] | –
1.6 ± 0.8 | – | Cc1cc(-c2cc(N)cc(C(F)(F)F)c2)cc(C)n1 [compound 88, 3-(2,6-dimethylpyridin-4-yl)-5-(trifluoromethyl)aniline] | –
1.1 ± 0.1 | – | Cn1ccc2cc(-c3cc(N)cc(C(F)(F)F)c3)ccc21 [compound 90, 3-(1-methyl-1H-indol-5-yl)-5-(trifluoromethyl)aniline] | –
3.7 ± 0.6 | – | Nc1cc(-c2ccn3ccnc3c2)cc(C(F)(F)F)c1 [compound 94, 3-(imidazo[1,2-a]pyridin-7-yl)-5-(trifluoromethyl)aniline] | –
